Test results taken from patent US20190255042A1, “APPLICATION OF HEDGEHOG PATHWAY INHIBITOR IN TREATING FIBROSIS DISEASES” (IMPACT THERAPEUTICS, INC, priority 2016, published 2019).

Experiments:
[1] = system: unilateral pulmonary fibrosis model in SD rats; experiment: Therapeutic efficacy in unilateral pulmonary fibrosis model in SD rats (bleomycin, dosing from D8); format: in vivo; design: Evaluation of injury and inflammatory lesions of left lung: Fibrotic lesion edge / Evaluation of injury and inflammatory lesions of left lung: Fibrosis lesion: scale not given here; details: for Expression of Type I collagen (%) / Expression of α-SMA protein (%): left lung immunohistochemistry; for Expression of Type I collagen (%) / Expression of α-SMA protein (%) / Evaluation of injury and inflammatory lesions of left lung: Fibrosis lesion / Evaluation of injury and inflammatory lesions of left lung: Fibrotic lesion edge / Fibrosis area (left pulmonary) / Fibrosis Score 1-3 (%) / Fibrosis Score 4-8 (%) / Fibrosis score (Ashcraft) / Volume of left lung / Weight of left lung: mean ± sem; for Evaluation of injury and inflammatory lesions of left lung: Fibrosis lesion / Evaluation of injury and inflammatory lesions of left lung: Fibrotic lesion edge: HE score; for Fibrosis area (left pulmonary): Masson trichrome
Method: On the modeling day, rats were anesthetized and exposed to trachea. Bleomycin was injected into left trachea of each group (dosage: 3 mg/kg, volume: 1.0 ml/kg). Oral administration was performed on Day 8 after modeling, once a day. On Day 22, according to the KCI animal euthanasia SOP, animals in each group were given an overdose of sodium barbiturate and sacrificed under intraperitoneal anesthesia, the left lung was taken, the weight and volume of the left lung were measured, then fixed by formalin, the bronchioles were stained with HE, Masson trichrome. The bronchioles, final bronchiole and small pulmonary artery injury and inflammation invasion were evaluated by semi-quantitative score, and pulmonary fibrosis was evaluated by Ashcraft semi-quantitative score. Immunohistochemical staining of α-SMA, Type I collagen (Collagen-I) were performed at the same time, a full scan was performed by Hamamatsu NanoZoomer Digital Pathology (S210), the α-SMA positive area was semiquantitatively calculated from the unit area of the whole sheelt in pulmonary fibrosis foci, and the positive staining area of type-I collagent per unit of area was calculated.

[2] = system: liver fibrosis model in C57BL/6 mice induced by CCl4; experiment: Prophylactic therapeutic efficacy in liver fibrosis model in C57BL/6 mice induced by CCl4; format: in vivo
Method: 56 male C57BL/6 mice were randomize divided into false Model group (Group 1, n=6), Model group (Group 2, n=10), positive drug Obercholic acid group (Group 3, n=10, 30 mg/kg/d), compound A low-dose group (Group 4, n=10, 5 mg/kg/d), Compound A medium-dose (Group 5, n=10, 10 mg/kg/d), and Compound A high-dose group (Group 6, n=10, 20 mg/kg/d). Oral molding agent for molding three times a week, for 4 weeks, weighing before each dose. Compound A was administered orally once a day for a total of 28 days from the day of modeling. The model group was given an equal volume of drug vehicle and weighed before each dose. All animals fasted for 6 hours from 24 hours after the end of the last dose. Serum was collected and the concentrations of AST, ALT and TBIL in serum were detected. All animals were euthanized, the livers were collected, weighed, and photos of the gross anatomy of the livers were taken. The liver tissue was fixed in 10% formalin solution for histopathological examination, H&E staining and Sirius red staining.

[3] = system: lung fibrosis model in mice induced by bleomycin; experiment: Therapeutic efficacy in lung fibrosis model in mice induced by bleomycin; format: in vivo, C57BL/6 mice; details: for Percentage of positive α-SMA (%): lung tissue immunohistochemical staining; for Percentage of positive α-SMA (%) / Inflammatory infiltration area / Total lung tissue area / Percentage of inflammatory area (%): n = 10, Mean ± Sem; for Percentage of inflammatory area (%): #<0.05 vs. BLM model group; for inflammatory infiltration area compared with model group: p<0.05
Method: Experimental Methods: 60 male C57BL/6 mice were randomize into 6 groups: Blank control group (Group 1, n=10), model group (Group 2, BLM, n=10), Compound A 10 mpk group (Group 3, n=10), compound A 20 mpk group (Group 4, n=10), Compound A 20 mpk +BIBF1120 50 mpk (Group 5, n=10), and BIBF1120 50 mpk positive reference group (Group 6, n=10). One week after the mice were acclimated to the environment, 10 mice in the blank control group were given 50 μl of normal saline in the trachea, and other 50 mice were given 50 μl BLM (0.66 mg/kg, 2 ml/kg) in the trachea. After BLM infusion, 50 mice in BLM infusion group were randomly assigned to start treatment on the 5th day, once a day, with a treatment cycle of 20 days. The whole process was 25 days. After the experiment, the lung tissues were fixed in 10% neutral formalin, dehydrated by alcohol gradient, embedded with paraffin, stained by hematoxylin-eosin (H&E) and Masson trichrome staining. And the inflammatory area and degree of fibrosis of the lung tissues in mice were evaluated by APERIO ScanScope. Immunohistochemical staining of lung tissue was performed to quantify α-SMA positive fibroblasts in lung tissue and to calculate the percentage (%) of α-SMA staining in the entire lung stroma.

[4] = 5 mpk oral D8 to D22 after modeling
[5] = 15 mpk oral D8 to D22 after modeling
[6] = 30 mpk oral D8 to D22 after modeling
[7] = high dose group (20 mg/kg/d), four weeks, p<0.05
[8] = obercholic acid 30 mg/kg/d, compound A 5, 10, 20 mg/kg/d

CC(C)c1cnc(-c2cc(NC(=O)c3ccc(N4C[C@@H](C)N(C)[C@@H](C)C4)cc3C(F)(F)F)ccc2Cl)[nH]1 [Comp A, N-(3-(5-isopropyl-1H-imidazol-2-yl)-4-chlorophenyl)-2-trifluoromethyl-4-((3S,5R)-3,4,5-trimethylpiperazin-1-yl)benzamide]
percentage of α-SMA protein compared with model group ([1]; 30 mg/kg/d): significantly decreased | percentage of Type-I collagen protein ([1]; 30 mg/kg/d and 15 mg/kg/d, no statistical significance): decreased | dose dependence of α-SMA protein expression ([1]; 5, 15, 30 mg/kg/d): significant dose dependence | Expression of Type I collagen (%) ([1]; 5 mpk oral D8 to D22, n = 5): 18.76 ± 2.54% | Expression of α-SMA protein (%) ([1]; 5 mpk oral D8 to D22, n = 5): 8.06 ± 0.59% | Evaluation of injury and inflammatory lesions of left lung: Fibrosis lesion [1, 4]: 6.75 ± 0.40 | Evaluation of injury and inflammatory lesions of left lung: Fibrotic lesion edge [1, 4]: 4.90 ± 0.15 | Fibrosis area (left pulmonary) [1, 4]: 70.61 ± 5.23 | Fibrosis Score 1-3 (%) [1, 4]: 88.00 ± 5.83% | Fibrosis Score 4-8 (%) [1, 4]: 12.00 ± 5.83% | Fibrosis score (Ashcraft) [1, 4]: 2.44 ± 0.11 | Volume of left lung [1, 4]: 1.34 ± 0.14 cm^3 | Weight of left lung [1, 4]: 1.60 ± 0.33 g | damage and inflammatory response of terminal bronchioles within fibrosis lesions and pulmonary small artery compared with model group ([1]; 14 consecutive days, BIBF1120 100, Compound A 5, 15, 30, GDC0449 50 mg/kg/d, p<0.001): significantly reduced | Expression of Type I collagen (%) ([1]; 15 mpk oral D8 to D22, n = 7): 16.48 ± 0.93% | Expression of α-SMA protein (%) ([1]; 15 mpk oral D8 to D22, n = 7): 7.30 ± 0.84% | Evaluation of injury and inflammatory lesions of left lung: Fibrosis lesion [1, 5]: 6.89 ± 0.34 | Evaluation of injury and inflammatory lesions of left lung: Fibrotic lesion edge [1, 5]: 4.82 ± 0.24 | Fibrosis area (left pulmonary) [1, 5]: 71.16 ± 2.81 | Fibrosis Score 1-3 (%) [1, 5]: 91.43 ± 1.43% | Fibrosis Score 4-8 (%) [1, 5]: 8.57± 1.43% | Fibrosis score (Ashcraft) [1, 5]: 2.44 ± 0.07 | Volume of left lung [1, 5]: 1.41 ± 0.21 cm^3 | Weight of left lung [1, 5]: 1.40 ± 0.21 g | Expression of Type I collagen (%) ([1]; 30 mpk oral D8 to D22, n = 7): 16.77 ± 2.03% | Expression of α-SMA protein (%) ([1]; 30 mpk oral D8 to D22, n = 7, **p<0.01 vs. Model group): 4.96 ± 0.26** % | Evaluation of injury and inflammatory lesions of left lung: Fibrosis lesion [1, 6]: 7.03 ± 0.18 | Evaluation of injury and inflammatory lesions of left lung: Fibrotic lesion edge [1, 6]: 4.95 ± 0.20 | Fibrosis area (left pulmonary) [1, 6]: 71.27 ± 3.21 | Fibrosis Score 1-3 (%) [1, 6]: 84.29 ± 4.81% | Fibrosis Score 4-8 (%) [1, 6]: 15.71 ± 4.81% | Fibrosis score (Ashcraft) [1, 6]: 2.47 ± 0.16 | Volume of left lung [1, 6]: 1.40 ± 0.09 cm^3 | Weight of left lung [1, 6]: 1.44 ± 0.14 g | degree of pulmonary fibrosis (Ashcraft score) compared with model group ([1]; BIBF1120 100, Compound A 5, 15, 30, GDC0449 50 mg/kg/d, p<0.01): significantly better | amount of Type I collagen deposition in the fibrotic lesions compared with model group ([1]; BIBF1120 100 mpk, Compound A 5 mpk, GDC0449 50 mpk): no significant difference | serum ALT, AST, and TBIL ([2]; 5 mg/kg, 10 mg/kg, and 20 mg/kg daily for four consecutive weeks): Slight reductions | effect on the inflammatory response of liver tissue ([2]; 5, 10, 20 mg/kg daily for four weeks): little effect | dose-dependent ALT and AST ([2]; 5, 10, 20 mg/kg/d, four weeks): decreasing trend | hepatocellular degeneration, necrosis and inflammatory cell infiltration ([2]; Compound A treatment groups 5, 10, 20 mg/kg/d): tendency to reduce | TBIL compared with model group ([2]; Compound A, four weeks of treatment): not significantly decreased | liver weight ([2]; after 4 weeks, compared with false model group, Obercholic acid 30 mg/kg/d, Compound A 5, 10, 20 mg/kg/d): no significant increase | area of liver tissue fibrosis ([2]; compound A dose groups, model group 1.2%, no statistical difference): 0.8% | changes of liver surface compared with model group ([2]; gross liver after 4 weeks, Obercholic acid 30 mg/kg/d, compound A 5, 10, 20 mg/kg/d): slightly alleviated | ALT compared with model group [2, 7]: significantly lower | AST compared with model group [2, 7]: significantly lower | body weight ([2]; high-dose group 20 mg/kg, significant difference from the other groups): no significant body weight growth | hepatic fibrosis area (Sirius red staining) compared with model group [2, 8]: no significant difference | total score of liver cell injury compared with model group [2, 8]: not significantly different | liver injury score ([2]; three dose groups (5, 10, 20 mg/kg), model group 6 points): 4-5 points | Percentage of positive α-SMA (%) ([3]; 10 mpk oral D5 to D25): 0.78 ± 0.11% | Inflammatory infiltration area ([3]; 10 mpk oral D5 to D25): 8.80 ± 2.79 mm^2 | Total lung tissue area ([3]; 10 mpk oral D5 to D25): 100.20 ± 3.61 mm^2 | Percentage of inflammatory area (%) ([3]; 10 mpk oral D5 to D25): 9.42 ± 3.35^# % | modified pathological Ashcroft score of pulmonary fibrosis injury compared with model group ([3]; 10 mpk, p<0.01): significantly decreased | inflammatory infiltration area compared with model group ([3]; 10 mpk): significantly decreased | Percentage of positive α-SMA (%) ([3]; 20 mpk oral D5 to D25, ##p < 0.01 vs. Model group): 0.64 ± 0.12^## % | Inflammatory infiltration area ([3]; 20 mpk oral D5 to D25): 7.85 ± 2.28 mm^2 | Total lung tissue area ([3]; 20 mpk oral D5 to D25): 96.41 ± 3.28 mm^2 | Percentage of inflammatory area (%) ([3]; 20 mpk oral D5 to D25): 8.23 ± 2.40^# % | immunohistochemical staining of α-SMA compared with model group ([3]; 20 mpk, p<0.01): significantly decreased | modified pathological Ashcroft score of pulmonary fibrosis injury compared with model group ([3]; 20 mpk, p<0.01): significantly decreased | inflammatory infiltration area compared with model group ([3]; 20 mpk): significantly decreased
